“Also recorded” adds a separate entry of the source.
Assays:
platelets [1] = assay: Cholesterol membrane capping with the fluorescent cholesterol probe filipin (Experiment F); type: cell-based, human; settings: 5° C. overnight
Method: (Note 1: Stock solutions were prepared in DMSO that was rigorously dried with an equal volume of A-3 molecular sieve that had been regenerated at 300° C. overnight. The resultant filipin stock 25 mg/ml DMSO solution was prepared in a nitrogen atmosphere and frozen at −70° C. to limit water induced hydrolysis.)
Approximately 3 ml of residual pooled platelets were obtained after 72 hr at standard storage conditions. 100 ul of platelets were mixed with 100 ul of fresh filipin (300 ug/ml in PBS+10%, DMSO) in each of 12 wells of a 24 well cluster plate and incubated at room temperature for 35 min. (DMSO was included to assist with membrane loading of the highly insoluble filipin molecule.) All wells were then diluted by adding 2.5 ml of PBS and incubated another 15 min to dilute unbound filipin and allow removal of DMSO by dilution. The plate was next centrifuged at 2500 g for 20 min in a pre-warmed centrifuge at 22° C. All wells were gently aspirated and the PBS was replaced with 3 ml of control or test platelets as follows:
All wells were next incubated 20 min at room temperature to allow DMSO to equilibrate. (Note: the final DMSO concentration in the Control wells or the PEG-400 only wells would be 6 parts in 10,000 or 0.06%.) Next the plate was held at 5° C. overnight and in the morning centrifuged in a 5° C. equilibrated centrifuge at 2,500 g for 20 min. Cold 4% Formalin/PBS was carefully added and the plate returned to 5° C. for overnight incubation. At 18 hr the plate was allowed to fix again at room temperature in the dark for 4 hours. Subsequently the formalin was aspirated and the plate washed with 4 changes of 2 ml of PBS. Finally, excess fluid was removed and the wells were photographed with an inverted fluorescent microscope. Note 2: Filipin is rapidly photo-bleached with the UV, thus the light intensity was lowered with a barrier filter of ˜20% was used. This filter setting was used consistently for all photographs. All photographs were taken under the same camera conditions. No post photographic image alterations were made. […]

platelets [2] = assay: Platelet degranulation by anti-von Willebrand factor immunofluorescent staining (Experiment D); type: cell-based, human; settings: 1.5% PEG-400, 5° C., 8 days, rotation
Method: Functional, non-degranulated, platelets should retain vWF at high concentrations in their alpha granules. To study the effect of PEG on gradual loss or preservation a direct fluorescent antibody immunoflorescent staining protocol was developed. Slides were air dried for 5 min and immersed in 0.5% fresh paraformaldehyde in 10% PBS pH 7.3 for 10 min. Slides were soaked for 2 min in PBS with 5 changes. Subsequently excess PBS was drained and slides immersed for 2 min in ice cold dry acetone. Again, slides were drained and excess acetone was removed with 5 PBS washings of 2 min each. Slides were then immersed in 0.5% filter sterilized BSA in PBS and allowed to block overnight at 4° C. After draining excess block solution, 50 ul of primary antibody (Polyclonal rabbit anti-vWF-PB9062, Boster Biological Technology, Pleasanton, Calif.) at 5 ng/ml was applied immediately over the platelet spot and incubated in a humidity chamber for 4 hr at 4° C. Slides were washed with 5 changes of 0.5% BSA/PBS for 5 min each. Excess fluid was again removed and FITC labeled goatd anti-rabbit, Sigma F0382, was added 50 ug/ml in 0.5% BSA/PBS for 3 hr. […]
von Willebrand Factor (vWF) is a major component of platelet alpha granules. […] No post photographic image adjustments were made to images analyzed.

Polyethylene glycol [PEG-400]
filipin clustering / cholesterol capping vs PBS control (platelets [1]; 2% PEG-400 in PBS): less filipin clustering; also recorded: less cholesterol capping | filipin clustering / cholesterol capping vs PBS control (platelets [1]; 4% PEG-400 in PBS): less cholesterol capping | filipin clustering / cholesterol capping vs PBS control (platelets [1]; 4% PEG-400 in PBS, listed as PEG): less filipin clustering | vWF degranulation at 5° C. (platelets [2]): sufficient to prevent vWG degranulation; also recorded: prevented vWG degranulation
